Earlier results as cited in patent publication US12484617B2, “Oral pouch product” (Altria Client Services LLC, priority 2022, dated 2025).

Settings: free base (non-protonated)

In the case of `CN1CCCC1c1cccnc1` (stereo not shown) [Free-base nicotine, 3-(1-methyl-2-pyrrolidinyl)pyridine], the pKa value is listed as “about 8”.
